According to PubChem BioAssay (NCI):
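48-hour exposure; five concentrations; linearly interpolated endpoints. Definition used: TGI = concentration required for complete inhibition of growth.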

Columns and labels:
Assay in all cases: DTP human tumour cell line panel, 48 h
[1] = tested on: RPMI-8226 leukemia
[2] = tested on: MDA-MB-435
[3] = tested on: HOP-62 NSCLC
[4] = tested on: OVCAR-3 ovarian
[5] = tested on: CAKI-1 renal
[6] = tested on: SN12C renal
[7] = tested on: RXF 393 renal
[8] = tested on: CCRF-CEM leukemia
[9] = tested on: SW-620 colon
[10] = tested on: SNB-19 CNS
[11] = tested on: UO-31 renal
[12] = tested on: SR leukemia
[13] = tested on: SK-MEL-28 melanoma
[14] = tested on: NCI/ADR-RES ovarian
[15] = tested on: LOX IMVI melanoma
[16] = tested on: IGROV1 ovarian
[17] = tested on: KM12 colon
[18] = tested on: NCI-H460 lung
[19] = tested on: NCI-H522 lung
[20] = tested on: COLO 205 colon
[21] = tested on: SF-295 CNS
[22] = tested on: NCI-H23 lung
[23] = tested on: HCT-15 colon
[24] = tested on: OVCAR-8 ovarian
[25] = tested on: MDA-N
[26] = tested on: T-47D breast
[27] = tested on: MCF7 breast
[28] = tested on: PC-3 prostate
[29] = tested on: UACC-62 melanoma
[30] = tested on: HS 578T breast
[31] = tested on: A549 NSCLC
[32] = tested on: MDA-MB-231 breast
[33] = tested on: TK-10 renal
[34] = tested on: MOLT-4 leukemia
[35] = tested on: MALME-3M melanoma
[36] = tested on: HCC-2998 colon
[37] = tested on: OVCAR-5 ovarian
[38] = tested on: K-562 leukemia
[39] = tested on: BT-549 breast
[40] = tested on: HL-60(TB) leukemia
[41] = tested on: NCI-H226 lung
[42] = tested on: SF-539 CNS
[43] = tested on: U251 CNS
[44] = tested on: HCT-116 colon
[45] = tested on: HT29 colon
[46] = tested on: EKVX NSCLC
[47] = tested on: SK-MEL-5 melanoma
[48] = tested on: 786-0 renal
[49] = tested on: ACHN renal
[50] = tested on: DU-145 prostate
[51] = tested on: UACC-257 melanoma
[52] = tested on: A498 renal
[53] = tested on: M14 melanoma
[54] = tested on: SF-268 CNS
[55] = tested on: HOP-92 NSCLC
[56] = tested on: SNB-75 CNS
[57] = tested on: SK-OV-3 ovarian
[58] = tested on: OVCAR-4 ovarian
[59] = tested on: SK-MEL-2 melanoma

C=C1C(=O)O[C@H]2C/C(C=O)=C\[C@H]3O[C@H]3/C(COC(=O)C(C)C)=C/CC12 (stereo not given in full)
TGI [1]: 7.61 µM
TGI [2]: 18.9 µM
TGI [3]: 26.5 µM
TGI [4]: 19.3 µM
TGI [5]: 7.31 µM
TGI [6]: 7.11 µM
TGI [7]: 14 µM
TGI [8]: 6.63 µM
TGI [9]: 6.87 µM
TGI [10]: 35.4 µM
TGI [11]: 18 µM
TGI [12]: 7.95 µM
TGI [13]: 14.8 µM
TGI [14]: 33.8 µM
TGI [15]: 11.8 µM
TGI [16]: 18.5 µM
TGI [17]: 22.7 µM
TGI [18]: 26.8 µM
TGI [19]: 10.5 µM
TGI [20]: 5.91 µM
TGI [21]: 75.5 µM
TGI [22]: 20.3 µM
TGI [23]: 9.43 µM
TGI [24]: 13.3 µM
TGI [25]: 13.4 µM
TGI [26]: 7 µM
TGI [27]: 50 µM
TGI [28]: 8.59 µM
TGI [29]: 5.42 µM
TGI [30]: 22 µM
TGI [31]: 37.3 µM
TGI [32]: 17.3 µM
TGI [33]: 25.7 µM
TGI [34]: 10.6 µM
TGI [35]: 24.2 µM
TGI [36]: 27.2 µM
TGI [37]: 7.48 µM
TGI [38]: 10.4 µM
TGI [39]: 24.8 µM
TGI [40]: 5.54 µM
TGI [41]: 51.1 µM
TGI [42]: 47.3 µM
TGI [43]: 19.6 µM
TGI [44]: 10.1 µM
TGI [45]: 12.8 µM
TGI [46]: 29.8 µM
TGI [47]: 22.2 µM
TGI [48]: 10.7 µM
TGI [49]: 6.59 µM
TGI [50]: 25.2 µM
TGI [51]: 28.4 µM

C=CCn1c(=O)c2ccccc2[n+]2c(-c3cccc([N+](=O)[O-])c3)csc12
TGI [52]: > 100 µM
TGI [1]: > 100 µM
TGI [53]: > 100 µM
TGI [54]: > 100 µM
TGI [2]: > 100 µM
TGI [3]: > 100 µM
TGI [55]: > 100 µM
TGI [4]: > 100 µM
TGI [5]: > 100 µM
TGI [6]: > 100 µM
TGI [7]: > 100 µM
TGI [8]: > 100 µM
TGI [9]: > 100 µM
TGI [10]: > 100 µM
TGI [56]: 69.9 µM
TGI [11]: > 100 µM
TGI [12]: 98.3 µM
TGI [13]: > 100 µM
TGI [57]: > 100 µM
TGI [58]: > 100 µM
TGI [14]: 68.2 µM
TGI [15]: > 100 µM
TGI [16]: > 100 µM
TGI [17]: > 100 µM
TGI [18]: > 100 µM
TGI [19]: > 100 µM
TGI [20]: 98.6 µM
TGI [21]: > 100 µM
TGI [22]: > 100 µM
TGI [24]: > 100 µM
TGI [25]: > 100 µM
TGI [26]: 72.8 µM
TGI [27]: > 100 µM
TGI [28]: > 100 µM
TGI [29]: > 100 µM
TGI [30]: > 100 µM
TGI [31]: > 100 µM
TGI [32]: > 100 µM
TGI [33]: > 100 µM
TGI [34]: > 100 µM
TGI [35]: > 100 µM
TGI [36]: > 100 µM
TGI [37]: > 100 µM
TGI [38]: > 100 µM
TGI [40]: 58.2 µM
TGI [41]: > 100 µM
TGI [42]: > 100 µM
TGI [43]: > 100 µM
TGI [44]: > 100 µM
TGI [45]: > 100 µM
TGI [46]: > 100 µM
TGI [47]: 36.5 µM
TGI [48]: > 100 µM
TGI [49]: > 100 µM
TGI [50]: > 100 µM
TGI [59]: > 100 µM
TGI [51]: > 100 µM

CN(C)C=Nc1nncc2n[nH]nc12
TGI [52]: > 100 µM
TGI [1]: > 100 µM
TGI [53]: > 100 µM
TGI [54]: > 100 µM
TGI [2]: > 100 µM
TGI [3]: > 100 µM
TGI [4]: > 100 µM
TGI [5]: > 100 µM
TGI [6]: > 100 µM
TGI [7]: > 100 µM
TGI [8]: > 100 µM
TGI [9]: > 100 µM
TGI [10]: > 100 µM
TGI [56]: > 100 µM
TGI [11]: > 100 µM
TGI [12]: > 100 µM
TGI [13]: > 100 µM
TGI [14]: > 100 µM
TGI [16]: > 100 µM
TGI [17]: > 100 µM
TGI [18]: > 100 µM
TGI [20]: > 100 µM
TGI [21]: > 100 µM
TGI [22]: > 100 µM
TGI [23]: > 100 µM
TGI [24]: > 100 µM
TGI [25]: > 100 µM
TGI [26]: > 100 µM
TGI [27]: > 100 µM
TGI [28]: > 100 µM
TGI [29]: > 100 µM
TGI [30]: > 100 µM
TGI [31]: > 100 µM
TGI [32]: > 100 µM
TGI [33]: > 100 µM
TGI [34]: > 100 µM
TGI [37]: > 100 µM
TGI [38]: > 100 µM
TGI [39]: > 100 µM
TGI [40]: > 100 µM
TGI [41]: > 100 µM
TGI [42]: > 100 µM
TGI [43]: > 100 µM
TGI [44]: > 100 µM
TGI [45]: > 100 µM
TGI [46]: > 100 µM
TGI [47]: > 100 µM
TGI [48]: > 100 µM
TGI [49]: > 100 µM
TGI [50]: > 100 µM
TGI [59]: > 100 µM
TGI [51]: > 100 µM
